# Patent US20200085776A1, “Methods of Reducing C-Reactive Protein and/or Treating Cardiovascular Disease” (CARDAX, INC., priority 2018, published 2020)
# Test system: Triglycerides
# Assay: Fasting lipid panel: triglycerides, CHASE clinical study
# Type: in vivo, human
# Conditions: for Triglycerides V2 to V6 % Change Max / Triglycerides V2 to V6 % Change Mean (SD) / Triglycerides V2 to V6 % Change Median / Triglycerides V2 to V6 % Change Min / Triglycerides V2 to V6 Change Max / Triglycerides V2 to V6 Change Mean (SD) / Triglycerides V2 to V6 Change Median / Triglycerides V2 to V6 Change Min: baseline to Week 12
# From the text: Blood samples shall be obtained under fasted conditions for a lipid panel at V2, V4, V6, V7, and V8. This panel shall include total cholesterol, LDL-C, VLDL-C, HDL-C, and triglycerides. A minimum eight-hour fast (water allowed) is required for the lipid panel.
# Fasting lipid profiles and fasting chemistry panels may be obtained within the visit time window on a day separate from the scheduled office visit, within two days before or after the other study procedures. A minimum of eight hours fasted (water allowed ad lib) is required.
# Table 7M provides the changes in lipid levels (mg/dL) (V2 to V6) for subjects.
# [1] = Group X 12 mg BID, V2 baseline pre-dose, all subjects
# [2] = Group X 12 mg BID, V2 baseline pre-dose, subjects with hyperlipidemia
# [3] = Group X 12 mg BID, V6 Week 12, all subjects
# [4] = Group X 12 mg BID, V6 Week 12, subjects with hyperlipidemia
# [5] = Group X 12 mg BID, all subjects
# [6] = Group X 12 mg BID, subjects with hyperlipidemia
# [7] = Group Z 48 mg BID, V2 baseline pre-dose, all subjects
# [8] = Group Z 48 mg BID, V2 baseline pre-dose, subjects with hyperlipidemia
# [9] = Group Z 48 mg BID, V6 Week 12, all subjects
# [10] = Group Z 48 mg BID, V6 Week 12, subjects with hyperlipidemia
# [11] = Group Z 48 mg BID, all subjects
smiles,measurement,setting,value
"CC1=C(/C=C/C(C)=C/C=C/C(C)=C/C=C/C=C(C)/C=C/C=C(C)/C=C/C2=C(C)C(=O)C(O)CC2(C)C)C(C)(C)CC(O)C1=O (centres unmarked) [Astaxanthin, astaxanthin]",Triglycerides Max,[1],482.0 mg/dL
same,Triglycerides Mean (SD),[1],201.9 (122.2) mg/dL
same,Triglycerides Median,[1],177.0 mg/dL
same,Triglycerides Min,[1],59.00 mg/dL
same,Triglycerides Max,[2],482.0 mg/dL
same,Triglycerides Mean (SD),[2],235.8 (126.1) mg/dL
same,Triglycerides Median,[2],253.5 mg/dL
same,Triglycerides Min,[2],80.00 mg/dL
same,Triglycerides Max,[3],420.0 mg/dL
same,Triglycerides Mean (SD),[3],177.4 (109.8) mg/dL
same,Triglycerides Median,[3],131.0 mg/dL
same,Triglycerides Min,[3],70.00 mg/dL
same,Triglycerides Max,[4],420.0 mg/dL
same,Triglycerides Mean (SD),[4],202.3 (120.2) mg/dL
same,Triglycerides Median,[4],211.5 mg/dL
same,Triglycerides Min,[4],70.00 mg/dL
same,Triglycerides V2 to V6 % Change Max,[5],42.37%
same,Triglycerides V2 to V6 % Change Mean (SD),[5],−7.10 (27.88) %
same,Triglycerides V2 to V6 % Change Median,[5],−12.9%
same,Triglycerides V2 to V6 % Change Min,[5],−61.5%
same,Triglycerides V2 to V6 Change Max,[5],56.00 mg/dL
same,Triglycerides V2 to V6 Change Mean (SD),[5],−24.6 (59.47) mg/dL
same,Triglycerides V2 to V6 Change Median,[5],-26.0 mg/dL
same,Triglycerides V2 to V6 Change Min,[5],-166 mg/dL
same,Triglycerides V2 to V6 % Change Max,[6],22.76%
same,Triglycerides V2 to V6 % Change Mean (SD),[6],−12.9 (26.00) %
same,Triglycerides V2 to V6 % Change Median,[6],−14.5%
same,Triglycerides V2 to V6 % Change Min,[6],−61.5%
same,Triglycerides V2 to V6 Change Max,[6],56.00 mg/dL
same,Triglycerides V2 to V6 Change Mean (SD),[6],−33.5 (66.92) mg/dL
same,Triglycerides V2 to V6 Change Median,[6],-34.0 mg/dL
same,Triglycerides V2 to V6 Change Min,[6],-166 mg/dL
same,Triglycerides Max,[7],1677 mg/dL
same,Triglycerides Mean (SD),[7],283.5 (368.2) mg/dL
same,Triglycerides Median,[7],175.0 mg/dL
same,Triglycerides Min,[7],75.00 mg/dL
same,Triglycerides Max,[8],1677 mg/dL
same,Triglycerides Mean (SD),[8],321.9 (407.8) mg/dL
same,Triglycerides Median,[8],182.0 mg/dL
same,Triglycerides Min,[8],82.00 mg/dL
same,Triglycerides Max,[9],650.0 mg/dL
same,Triglycerides Mean (SD),[9],192.2 (155.1) mg/dL
same,Triglycerides Median,[9],145.5 mg/dL
same,Triglycerides Min,[9],63.00 mg/dL
same,Triglycerides Max,[10],650.0 mg/dL
same,Triglycerides Mean (SD),[10],213.1 (170.3) mg/dL
same,Triglycerides Median,[10],149.5 mg/dL
same,Triglycerides Min,[10],76.00 mg/dL
same,Triglycerides V2 to V6 % Change Max,[11],115.2%
same,Triglycerides V2 to V6 % Change Mean (SD),[11],−0.96 (43.74) %
same,Triglycerides V2 to V6 % Change Median,[11],−16.2%
same,Triglycerides V2 to V6 % Change Min,[11],−49.5%
same,Triglycerides V2 to V6 Change Max,[11],348.0 mg/dL
same,Triglycerides V2 to V6 Change Mean (SD),[11],−9.89 (109.9) mg/dL
same,Triglycerides V2 to V6 Change Median,[11],-24.5 mg/dL
same,Triglycerides V2 to V6 Change Min,[11],-178 mg/dL
